According to US20140023656A1, “PHARMACEUTICAL COMPOSITION FOR TREATMENT AND PREVENTION OF TH3 MARCH-RELATED DISEASES” (BioLT CO., LTD., priority 2010, published 2014):

B1: IFN-γ: recombinant interferon-gamma used to treat dog rheumatoid arthritis (protein, UniProt P42161 24-166, looked up)
Interferon gamma: QAMFFKEIENLKEYFNASNPDVSDGGSLFVDILKKWREESDKTIIQSQIVSFYLKLFDNFKDNQIIQRSMDTIKEDMLGKFLNSSTSKREDFLKLIQIPVNDLQVQRKAINELIKVMNDLSPRSNLRKRKRSQNLFRGRRASK

Experiments:
filaggrin (FLG) proteins = assay: ELISA measurement of filaggrin (FLG) and filaggrin repair capacity; format: in vivo, human; settings: person, vulgaris psoriasis
From the text: A kit for sandwich enzyme immunoassay was used for quantitatively in vitro measuring filaggrin (FLG) proteins (gene related filaggrin) in a tissue homogenate or other body fluids.
Specifically, as for detection strength, measurement was done at a wavelength of 450 nm. Biotin-coupled polyclonal antibody specifically coupled with FLG was used, and the actual measured value of filaggrin (ng/ml frozen serum) was roughly estimated by a standard curve (FIG. 17) previously prepared with FLG standard sample.
Amongst mammal patients (human and dog etc.) having Th3 march/test animals, patients an amount of filaggrin proteins based on filaggrin (FLG) gene which is responsible gene of atopy syndrome (atopy is newly defined as atopy syndrome by the finding of filaggrin) were not detected or were detected in a small amount (deletion or mutation of filaggrin gene) were selected (Th3-FLG).
Subsequently, “zinc finger/Znf” (see Table 5 above) was administrated to the patients etc. (Th3-FLG) in which deletion etc. of filaggrin were confirmed, after which filaggrin repair activity was compared. […]
The filaggrin repair capacity (% of control) by zinc finger/Znf was calculated according to the following formula: […]

vulgaris psoriasis = assay: Clinical effects in vulgaris psoriasis (Th1 disease/Th3 march); format: in vivo, human; settings: person, oral 75 mg twice per day as polaprezinc, 61 days
Description: This example is an example of treatment of Th2 march patient from Th1 disease (psoriasis). (1) For referential example (control experiment), zinc agent (Trade name: Promac) was tried to be administrated to this patient. Since the activated TGF-β1 was as high as 9.3 ng/ml (average value of healthy subjects: 1.1 ng/ml), a novel supplement TgF was administrated to regulate TGF-β1. Thereafter, Promac was orally administrated to the adult twice per day in an amount of 75 mg per one dosage, or 1.6 mg/kg at a time after breakfast and a time before bedtime as polaprezinc. Promac was administrated for 61 days. […] (2) On the other hand, zinc finger/Znf was administrated to the patient for 74 days. This case (vulgaris psoriasis) is a disease presenting hyperkeratosis and is characterized by scale.

dog rheumatoid arthritis = assay: Treatment of dog rheumatoid arthritis (plain x-ray examination, walking); format: in vivo
From the text: FIG. 3 is a drawing showing the results of examining characteristic bone resorption in dog rheumatoid arthritis. Th3 march via zinc cell cytokine signal is marching through a route of cell surface BMP and TGF-β1. […] When the healing can be seen thereafter (FIG. 4), bone resorption and bone augmentation are equilibrated. However, TH3 vital reaction is enhanced to clinically induce atopic dermatitiss.
In FIG. 4, according to the finding of the plain x-ray examination, a bone resorption image of arthritis due to rheumatoid arthritis which is Th1 vital reactive disease (pretreatment) is shown. In the right figure of FIG. 4 showing the post-treatment, an improvement image of joint was seen when bone resorption and bone augmentation were balanced. […] According to the finding of post-treatment in the right figure of FIG. 4, incisura trochlearis in the elbow joint was visualized and significant improvement tendency was observed (Evaluation: While the dog before treatment hated going for a walk, the dog could go for a walk (about 5 minutes). It is noted that the standard walking period in the same kind of dog is within 30 minutes).

| Molecule | filaggrin (filaggrin (FLG) proteins; at the time after zinc agent (control experiment)) [ng/mL] | FLA repair (filaggrin (FLG) proteins; oral 75 mg twice per day as polaprezinc, 61 days) | clinical effect (vulgaris psoriasis) | clinical effect (vulgaris psoriasis; listed as zinc agent) | walk the dog could go for (dog rheumatoid arthritis; dog after treatment, before treatment hated going for a walk, standard within 30 minutes) | bone resorption during the course of the treatment (dog rheumatoid arthritis; dog rheumatoid arthritis, FIG. 3) | hyperpermeability image due to invasion around the joint and inflammation of joint (dog rheumatoid arthritis; dog, Th1 arthritis, direct administration of 4MU within the joint, plain x-ray) |
| --- | --- | --- | --- | --- | --- | --- | --- |
| NCCC(=O)[N-][C@@H](Cc1c[nH]cn1)C(=O)[O-].[Zn+2] [Promac, polaprezinc] | 0.9 | could not be recognized | no clinical effect could be recognized | no effect |  |  |  |
| B1 |  |  |  |  | about 5 minutes | bone resorption is predominant | significantly improved |
